By IC50 is commonly meant the concentration that gives 50% inhibition. Usually Km stands for the substrate concentration at which the rate is half of its maximum. The Vmax is the rate approached at saturating substrate. By kcat is commonly meant the number of substrate molecules converted per active site and unit of time at saturation. What is called kcat/Km is the second-order rate constant that governs catalysis at low substrate concentration.

17 compounds from paper PMC12578646, “Prodrug florfenicol amine is activated by intrinsic resistance to target Mycobacterium abscessus” (Nature Microbiology, 2025) can be followed below.

In brackets after ≈: the same amount, converted by molar mass.

One series in a line: in vitro. Also on record: HepG2 cytotoxicity, Cell-Titer Glo. Particulars: human, hepg2 cells; read-out: HepG2 Cytotoxicity IC50. As for the experimental part: (§1) MPS and cytotoxicity of experimental compounds and PTC-targeting controls against HepG2 (liver hepatocellular carcinoma cells ATCC HB-8065) were performed as previously described without any modifications (see ref. [56] for MPS assay and ref. [78] for cytotoxicity assay). […] Results reported as mean ± s.d., n = 3 biological replicate. The requirement for FF-NH2 to be activated by Eis2 led us to hypothesize that it would lack the mitochondrial protein synthesis (MPS) inhibition liability of other PTC-targeting agents. We therefore profiled FF-NH2, FF-ac and other analogues for MPS inhibition activity.

A further series deals with T1, M. abscessus WT.
T1 construct: ATCC 19977
Put plainly: microbe, parasite or virus in culture. The arrangement: broth microdilution MIC according to CLSI, read at 14 days. Conditions: Mycobacteroides abscessus, 336 h, read-out: WT MIC (µg/mL), day 14.

In series [1] the test system is HepG2 mitochondrial protein synthesis. Put plainly: cells. Conditions: Homo sapiens, read-out: MPS IC50. Also on record: mitochondrial protein synthesis inhibition in HepG2 cells. The method, then: as §1, with “MPS inhibition and cytotoxicity assays MPS and” for “MPS and”
The target of series [2] is T2, Eis2 (Mycobacteroides abscessus, UniProt B1MKV6).
T2 construct: gene MAB_4532c; Eis2–pET30a, TEV cleavable N-terminal 6 histidine tag (removed)
T2 sequence (B1MKV6 entry or part of it): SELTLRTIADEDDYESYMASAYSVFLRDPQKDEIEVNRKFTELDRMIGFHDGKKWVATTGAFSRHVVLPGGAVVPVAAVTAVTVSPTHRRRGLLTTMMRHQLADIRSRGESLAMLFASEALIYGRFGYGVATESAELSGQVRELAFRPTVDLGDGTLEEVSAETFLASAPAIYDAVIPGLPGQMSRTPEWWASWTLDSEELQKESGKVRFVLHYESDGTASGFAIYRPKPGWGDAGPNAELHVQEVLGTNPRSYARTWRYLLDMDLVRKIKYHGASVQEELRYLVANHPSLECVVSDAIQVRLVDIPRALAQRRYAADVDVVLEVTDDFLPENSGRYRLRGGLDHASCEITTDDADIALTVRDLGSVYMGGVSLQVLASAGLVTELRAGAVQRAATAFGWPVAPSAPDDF
Put plainly: Michaelis-Menten acetylation kinetics with purified Eis2, DTNB free-thiol assay (control substrate). The series is classed as biochemical.

The target in series [3] is T2, Eis2. Put plainly: Michaelis-Menten acetylation kinetics with purified Eis2, DTNB free-thiol assay. The class given is biochemical.
For series [4], the system named is NCC[C@H](O)C(=O)N[C@@H]1C[C@H](N)[C@@H](O[C@H]2O[C@H](CN)[C@@H](O)[C@H](O)[C@H]2O)[C@H](O)[C@H]1O[C@H]1O[C@H](CO)[C@@H](O)[C@H](N)[C@H]1O. Put plainly: purified protein, by the assay type. Also on record: Eis2 acetyltransferase kinetics, Michaelis-Menten fit for substrate. The source says:
Consistent with previous findings, the aminoglycoside controls AMK and [compound left out] were also shown as substrates of Eis2 (ref. [47]), as well as CAM-NH2 and TAM-NH2. […] These findings highlight how specific chemical modifications to antibiotics govern substrate specificity and antimicrobial efficacy.

With `CSc1ccc2c(c1)N(CCC1CCCCN1C)c1ccccc1S2` (stereo not shown) [Thioridazine, thioridazine], in the series “in vitro”, the CC50 at 72 h stood at 6.6 ± 0.3 µM.

As for `CC[C@H]1OC(=O)[C@H](C)[C@@H](O[C@H]2C[C@@](C)(OC)[C@@H](O)[C@H](C)O2)[C@H](C)[C@@H](O[C@@H]2O[C@H](C)C[C@H](N(C)C)[C@H]2O)[C@](C)(O)C[C@@H](C)CN(C)[C@H](C)[C@@H](O)[C@]1(C)O` [AZITH], the MIC in the series on M. abscessus WT was more than 32 µg/mL.

Turning to `CS(=O)(=O)c1ccc([C@@H](O)[C@@H](CO)NC(=O)C(Cl)Cl)cc1` [Thiamphenicol], the IC50 in series [1] is 1.4 ± 0.7 µM. Also, the CC50 at 72 h in the series “in vitro” is more than 200 µM.

Consider `CC[C@H]1OC(=O)[C@H](C)[C@@H](O[C@H]2C[C@@](C)(OC)[C@@H](O)[C@H](C)O2)[C@H](C)[C@@H](O[C@@H]2O[C@H](C)C[C@H](N(C)C)[C@H]2O)[C@](C)(O)C[C@@H](C)C(=O)[C@H](C)[C@@H](O)[C@]1(C)O` [ERY], for which the MIC with M. abscessus WT is more than 32 µg/mL.

`CN[C@@H]1[C@H](O)[C@H](NC)[C@H]2O[C@@]3(O)C(=O)C[C@@H](C)O[C@H]3O[C@@H]2[C@H]1O` [SPC]: in the series with M. abscessus WT, the MIC turned out to be 512 µg/mL (≈ 1540 µM).

In the case of `CS(=O)(=O)c1ccc([C@@H](O)[C@H](N)CO)cc1` [TAM-NH2, thiamphenicol amine], the IC50 in series [1] was more than 100 µM. For the same compound, the CC50 at 72 h in “in vitro” was more than 200 µM.

For `N[C@H](CO)[C@H](O)c1ccc([N+](=O)[O-])cc1` [CAM-NH2, chloramphenicol amine], the IC50 in series [1] was more than 100 µM. In addition, the CC50 at 72 h in the series “in vitro” was more than 200 µM.

`CC(=O)N[C@H](CF)[C@H](O)c1ccc(S(C)(=O)=O)cc1` [FF-ac, florfenicol acetyl]: the IC50 in series [1] turned out to be 4.7 ± 1.7 µM. Besides, the CC50 at 72 h in “in vitro” is more than 200 µM.

On to `CC[C@H]1OC(=O)[C@H](C)[C@@H](O[C@H]2C[C@@](C)(OC)[C@@H](O)[C@H](C)O2)[C@H](C)[C@@H](O[C@@H]2O[C@H](C)C[C@H](N(C)C)[C@H]2O)[C@](C)(OC)C[C@@H](C)C(=O)[C@H](C)[C@@H](O)[C@]1(C)O` [CLR], for which, in the series on M. abscessus WT, the MIC came to 2 µg/mL (≈ 2.67 µM).

In the case of `NCC[C@H](O)C(=O)N[C@@H]1C[C@H](N)[C@@H](O[C@H]2O[C@H](CN)[C@@H](O)[C@H](O)[C@H]2O)[C@H](O)[C@H]1O[C@H]1O[C@H](CO)[C@@H](O)[C@H](N)[C@H]1O` [AMK, amikacin], the MIC in the series on M. abscessus WT lay in the range of 4 to 8 µg/mL (≈ 6.83 to 13.7 µM). Moreover, the “Michaelis-Menten acetylation kinetics with purified Eis2, DTNB free-thiol assay” value at Eis2 [2] is “the aminoglycoside controls AMK and hygromycin B were also shown as substrates of Eis2”.

For `CS(=O)(=O)c1ccc([C@@H](O)[C@H](N)CF)cc1` [FF-NH2, florfenicol amine], the “Michaelis-Menten acetylation kinetics with purified Eis2, DTNB free-thiol assay” value on Eis2 [3] was “kcat/KM 6.7 × 10^3 ± 5.1 × 10^2”. In addition, the IC50 in series [1] is more than 100 µM. Further, the MIC with M. abscessus WT lay within 62.5 to 125 µg/mL (≈ 253 to 505 µM). In addition, in the series “in vitro”, the CC50 at 72 h is more than 200 µM.

As to `CC(=O)NC[C@H]1CN(c2ccc(N3CCOCC3)c(F)c2)C(=O)O1` [Linezolid], in series [1], the IC50 was determined as 6.2 ± 1.6 µM. The CC50 at 72 h in “in vitro” is more than 200 µM.

For the compound “Eis2 (Mycobacteroides abscessus ATCC 19977)”, in series [4], the Km was 232.6 ± 26 µM, the Vmax is 6 µM/min, the kcat worked out at 4.7 ± 0.5 s⁻¹ and the kcat/Km was 20000 ± 320 M⁻¹ s⁻¹.

Take `O=C(N[C@H](CO)[C@H](O)c1ccc([N+](=O)[O-])cc1)C(Cl)Cl` [Chloramphenicol]: the IC50 in series [1] was 5.5 ± 2.5 µM. Further, the CC50 at 72 h in “in vitro” is more than 200 µM.

Consider `CC(=O)NC[C@H]1CN(c2ccc(N3CCOCC3)c(F)c2)C(=O)O1` [LZD], for which the MIC in the series on M. abscessus WT came to 8 µg/mL (≈ 23.7 µM).

`CS(=O)(=O)c1ccc([C@@H](O)[C@@H](CF)NC(=O)C(Cl)Cl)cc1` [Florfenicol]: the IC50 in series [1] amounted to 1.2 ± 0.2 µM. Moreover, the CC50 at 72 h in “in vitro” was more than 200 µM.

Turning to `O=C1CN(/N=C/c2ccc([N+](=O)[O-])o2)C(=O)N1` [Nitrofurantoin, nitrofurantoin], in “in vitro”, the CC50 at 72 h came to 6.8 ± 0.3 µM.
